The assay has as its target T1, human PDE2A1 (Homo sapiens, UniProt O00408).
T1 construct: GST; purchased BPS Bioscience (San Diego, Calif.) 60020; host or cells: insect cells
The experiment in a line: IMAP FP PDE assay, human PDE2A1. The format is biochemical. The procedure, abridged: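 FP (IMAP) read after 60 min room-temperature reaction of insect-cell GST-human PDE2A1 with 50 nM FAM-cAMP plus 1000 nM cGMP (pH 7.2 Tris, Mg2+, DTT). Compounds titrated 3-fold over ten points. Apparent Ki derived assuming KM of 10,000 nM; enzyme at 20% substrate turnover.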

[1] abbreviates: Lab A, read-out: Human PDE2 Ki (nM) Lab A.
Setting [2] is: Lab B, read-out: Human PDE2 Ki (nM) Lab B.

Where two headings read alike, the source gives them in different places.

By Ki is commonly meant a dissociation constant, usually derived from enzyme kinetics or from competition with a known ligand.

T1 sequence (O00408 1-920 isoform O00408-2): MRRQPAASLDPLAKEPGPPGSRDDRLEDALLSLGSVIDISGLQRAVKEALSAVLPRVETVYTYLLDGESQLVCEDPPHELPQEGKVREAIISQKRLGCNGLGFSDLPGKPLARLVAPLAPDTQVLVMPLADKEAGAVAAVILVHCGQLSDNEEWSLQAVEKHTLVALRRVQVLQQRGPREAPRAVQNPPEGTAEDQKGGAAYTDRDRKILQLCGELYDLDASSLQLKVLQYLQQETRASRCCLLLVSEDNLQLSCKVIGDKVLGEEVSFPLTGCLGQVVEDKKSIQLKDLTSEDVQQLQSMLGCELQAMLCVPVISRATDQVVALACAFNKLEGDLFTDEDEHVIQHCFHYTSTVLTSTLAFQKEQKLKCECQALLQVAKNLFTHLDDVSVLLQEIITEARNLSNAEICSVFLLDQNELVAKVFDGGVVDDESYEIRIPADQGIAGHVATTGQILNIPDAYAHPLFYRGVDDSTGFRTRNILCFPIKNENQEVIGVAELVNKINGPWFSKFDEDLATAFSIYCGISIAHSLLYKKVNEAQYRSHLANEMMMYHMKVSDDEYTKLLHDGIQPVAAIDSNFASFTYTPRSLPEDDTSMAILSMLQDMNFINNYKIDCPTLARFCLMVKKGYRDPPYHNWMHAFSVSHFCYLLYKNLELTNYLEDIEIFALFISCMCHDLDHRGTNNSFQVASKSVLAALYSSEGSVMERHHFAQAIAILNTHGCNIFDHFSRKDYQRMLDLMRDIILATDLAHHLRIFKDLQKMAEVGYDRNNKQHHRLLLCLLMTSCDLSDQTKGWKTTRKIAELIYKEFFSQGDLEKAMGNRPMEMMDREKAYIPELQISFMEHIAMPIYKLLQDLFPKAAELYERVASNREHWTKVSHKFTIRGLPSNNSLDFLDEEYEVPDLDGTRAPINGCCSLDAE

Take `CCOCCc1nc2c(c(C)nn2C(C)c2ccc(C(F)(F)F)cc2)c(=O)[nH]1` (stereo not shown) [Example 35, 6-(2-Ethoxyethyl)-3-methyl-1-(1-(4-(trifluoromethyl)phenyl)ethyl)-1H-pyrazolo[3,4-d]pyrimidin-4(5H)-one]: the Ki under setting [1] came to 105 nM.
Regarding `Cc1nc2c(c(CO)nn2C(c2ccc(OC(F)(F)F)c(F)c2)C(C)C)c(=O)[nH]1` (single isomer, unassigned) [Example 126, (R)- or (S)-1-(1-(3-Fluoro-4-(trifluoromethoxy)phenyl)-2-methylpropyl)-3-(hydroxyl-methyl)-6-methyl-1H-pyrazolo-[3,4-d]pyrimidin-4(5H)-one], the inhibition constant (Ki) under setting [2] turned out to be 5.7 nM.
On to `CCCc1nc2c(c(C)nn2C(C)c2ccc(C(F)(F)F)cc2)c(=O)[nH]1` (stereo not shown) [Example 41, 3-Methyl-6-propyl-1-{1-[4-(trifluoromethyl)phenyl]ethyl}-1,5-dihydro-4H-pyrazolo[3,4-d]pyrimidin-4-one], for which the Ki under setting [1] was found to be 35 nM.
In the case of `Cc1nc2c(c(CO)nn2[C@H](c2ccc(C(C)(C)C)cc2)C(C)C)c(=O)[nH]1` [Example 159, (S)-1-(1-(4-tert-Butylphenyl)-2-methylpropyl)-3-(hydroxymethyl)-6-methyl-1H-pyrazolo[3,4-d]pyrimidin-4(5H)-one], under setting [2], the Ki was found to be 2 nM.
